Reference: patent publication US9284325B2, “Spectinamides as anti-tuberculosis agents” (UNIVERSITY OF TENNESSEE RESEARCH FOUNDATION, priority 2009, dated 2016)
Where a name gives a salt, the structure may show the parent alone.

Legend:
Vero epithelial cells = settings: African green monkey
M. tuberculosis H37Rv = assay: MIC determination by microbroth dilution, anti-tuberculosis activity; assay type: cell-based, Mycobacterium tuberculosis
[1] = system: Strenotrophomonas maltophilia ATCC 13637; assay: MIC determination by microbroth dilution; assay type: cell-based
B. anthracis Sterne 34F2 = assay: microbe, parasite or virus in culture; assay type: cell-based, Bacillus anthracis; settings: Bacillus anthracis, STERNE34F2, read-out: MIC B. anthracis 34F2
E. coli K12 = assay: MIC determination by microbroth dilution; assay type: cell-based, Escherichia coli; settings: Escherichia coli, K12
[2] = system: Acinetobacter baumannii ATCC 19606; assay: MIC determination by microbroth dilution; assay type: cell-based; settings: ATCC19606
[3] = system: S. aureus 8325 or strain ATCC 29213; assay: MIC determination by microbroth dilution; assay type: cell-based, Staphylococcus aureus; settings: Staphylococcus aureus, ATCC29213; S. aureus 8325 or strain ATCC 29213 (for 1471-1544)
in vitro [4] = settings: African green monkey
in vitro [5] = assay type: in vitro ADME; settings: rat, plasma, pH 7.4
Procedure: Protein Binding: Protein binding of the compounds was determined using equilibrium dialysis. Biologically relevant concentrations of test compound were prepared (low and high) in rat plasma. 200 μL of the plasma sample was placed in the central chamber and 350 μL of blank isotonic phosphate buffer, pH 7.4 was added to the peripheral chamber of a dialysis device (MW cutoff 6000-8000 D, RED® device, Pierce Biotechnology Inc, Rockford, Ill., United States of America). The chambers were covered with a seal and incubated at 37° C. for four hours on a shaker set at 100 rpm. At the end of incubation, the volumes of plasma and recipient buffer were measured to identify and account for volume shift, if any. Aliquots of plasma and buffer were used to determine the drug concentration using an LC-MS/MS assay. The free fraction of the drug was calculated as ratio of the concentrations in the buffer and in plasma.
(§1) Following intravenous administration of 10 mg/kg in rats, 1329 follows a bi-exponential concentration/time profile with distinct distribution and elimination phases. Plasma protein binding of the compound is approximately 30%. 1329 is widely distributed with a steady state volume of distribution of 4.3 L/kg. It has a mean residence time in the body of approximately 5.3 hours.

[6] = assay type: in vitro ADME; settings: rat, microsomes, 1.5 h, 2 µM, pH 7.4
Procedure: In Vitro Microsomal Metabolic Stability: In vitro microsomal metabolic stability of the compounds was assessed using pooled rat liver microsomal preparations (Cellzdirect, Austin, Tex., United States of America). Reactions were started by adding 25 μL of microsomal protein solution (10 mg/mL) to 25 μL of test compound (20 μM) and 200 μL of NADPH regenerating solution (1.3 mM NADP+, 3.3 mM glucose-6-phosphate, 3.3 mM MgCl2 and 1 unit/mL glucose-6-phosphate dehydrogenase in pH 7.4 phosphate buffer solution). The reaction mixture was incubated at 37° C. and samples were taken at 0, 5, 10, 15, 30, 45, 60 and 90 minutes respectively. A reaction mixture containing above mentioned composition but instead using deactivated microsomes was used for control. All the samples were analyzed using LC-MS/MS assay. Disappearance of the parent compound was monitored during the incubation period. The percentage of parent compound remaining intact was estimated by comparing analyte concentrations before and after incubation.
as §1

[7] = system: Strep. pneumoniae DAW27 or strain R6; assay: MIC determination by microbroth dilution; assay type: cell-based, Streptococcus pneumoniae; settings: Streptococcus pneumoniae; Strep. pneumoniae DAW27 or strain R6 (for 1443-1544); read-out: MIC S. pneumoniae
[8] = system: Proteus vulgaris ATCC 33420; assay: MIC determination by microbroth dilution; assay type: cell-based; settings: ATCC33420
E. faecalis ATCC 33186 = assay: MIC determination by microbroth dilution; assay type: cell-based, Enterococcus faecalis; settings: Enterococcus faecalis, ATCC33186
[9] = system: Klebsiella pneumoniae ATCC 33495; assay: MIC determination by microbroth dilution; assay type: cell-based; settings: ATCC33495
E. coli ribosomes = assay type: biochemical
E. coli K12 ΔtolC = assay: microbe, parasite or virus in culture; assay type: cell-based; settings: Escherichia coli, read-out: MIC E. coli K12 ΔtolC
P. aeruginosa PAO1 = assay: MIC determination by microbroth dilution; assay type: cell-based, Pseudomonas aeruginosa; settings: Pseudomonas aeruginosa

CN[C@@H]1[C@H](O)[C@H](NC)C2O[C@]3(O)C(OC2[C@H]1O)O[C@H](C)C[C@H]3NC(=O)Cc1ccccn1 (stereo partly drawn) [Compound 1329, 3′-Dihydro-3′-deoxy-4(R)-(pyridin-2yl)acetylamino spectinomycin Dihydrochloride]
therapeutic index (IC50 divided by the MIC) (Vero epithelial cells): 5456 | Activity (MIC) of 1329 compared to streptomycin (M. tuberculosis H37Rv): 0.8-1.6 | MIC (M. tuberculosis H37Rv; Mycobacterium tuberculosis, H37RV, 168 h, read-out: MIC): 0.8 µg/mL | MIC [1]: 200 µg/mL | MIC (B. anthracis Sterne 34F2): 50 µg/mL | MIC (E. coli K12): 200 µg/mL | MIC [2]: > 200 µg/mL | MIC [3]: 50 µg/mL | IC50 at 72 h (in vitro [4]): 2180 µg/mL | fraction unbound at 4 h (in vitro [5]): ~0.7 | parent drug remaining intact [6]: 95% | MIC [7]: 6.25 µg/mL | MIC [8]: > 200 µg/mL | MIC (E. faecalis ATCC 33186): 100 µg/mL | MIC [9]: > 200 µg/mL | IC50 (E. coli ribosomes; E. coli S30 system, FIG. 4, read-out: concentration causing 50% reduction in the synthesis of luciferase): 660 nM | IC50, 50% inhibition of luciferase biosynthesis in S30 assay (E. coli ribosomes; E. coli S30 transcription/translation assay): 0.29 µg/mL | MIC (E. coli K12 ΔtolC): 50 µg/mL | MIC (P. aeruginosa PAO1): 100 µg/mL
